Results as given in US20250352445A1, “COMPOSITIONS FOR SEBUM CONTROL” (Dyson Operations Pte. Ltd., priority 2022, published 2025).

System: Primary sebocytes
Test: Lipid reduction in primary sebocytes, AdipoRed dye, mean fluorescence intensity by flow cytometry
Format: cell-based, human
Conditions: primary sebocytes incubated 3 days, 10 μM for the compound, 31.25 μg/mL for the extract, average of 10,000 cells
Description: Primary sebocytes were derived from the forehead of a person. The same cell line was used in all experiments. Flow cytometry experiments were conducted on the BD LSR Fortessa X-20 as follows: Sebocytes stained with a lipid dye (AdipoRed™) were first analyzed according to size and granularity with only single cells selected for AdipoRed™ signal intensity measurement. […] Cells treated with compositions of the invention were compared to vehicle-treated cells to determine the percentage of lipid reduction. […] The cells were washed with PBS buffer [5 mL for a 10 cm culture plate] and then incubated at 37° C. with 0.125% Trypsin-EDTA (Gibco, 15400054) [2 mL of Trypsin for a 10 cm culture plate] for 5-10 minutes. […] When all cells had detached, fixative solution (250 μL; […] The tubes were stored on ice before flow cytometry. Mean fluorescence intensity of the lipid signal can be obtained from the flow cytometer plot which are used to determine the inhibitory effect of the compounds on the sebocytes. The lipid reduction effects of the compositions of the invention were measured against DMSO as a negative control, and against the known lipid-reducing compounds epigallocatechin gallate (EGCG) and salicylic acid (SA) as positive controls. The results are shown in Table 3 and FIGS. 1 to 7.

Structure (SMILES): O=C(O[C@@H]1Cc2c(O)cc(O)cc2O[C@@H]1c1cc(O)c(O)c(O)c1)c1cc(O)c(O)c(O)c1 [EGCG, epigallocatechin gallate]
- Percentage Reduction in Mean Fluorescence Intensity (Against DMSO Control): 13.4%
